Activity calls are given as the source filed them. No cut-off for these calls is given here.
Key:
[1] = Cytotoxicity against african green monkey Vero cells after 3 days by neutral red dye method; format: cell-based; details: chlorocebus sabaeus
[2] = system: Human alphaherpesvirus 1; test: Antiviral activity against Herpes simplex virus type 1 infected in Vero cells at 0.001 ID50/cells assessed as destruction of cell layer after 3 days by neutral red dye method; format: functional, organism-based
[3] = system: Human alphaherpesvirus 1; test: Antiviral activity against Herpes simplex virus type 1 infected in Vero cells at 0.001 ID50/cells assessed as change in cell morphology after 3 days by neutral red dye method; format: functional, organism-based
[4] = system: Human alphaherpesvirus 1; test: Antiviral activity against Herpes simplex virus type 1 infected in Vero cells at 0.001 ID50/cells assessed as protection against virus-induced cytopathic effect after 3 days by neutral red dye method; format: functional, organism-based; details: Human alphaherpesvirus 1, Vero, 72 h
[5] = system: Human alphaherpesvirus 1; test: Antiviral activity against Herpes simplex virus type 1 infected in Vero cells at 0.01 ID50/cells assessed as protection against virus-induced cytopathic effect after 3 days by neutral red dye method; format: functional, organism-based; details: Human alphaherpesvirus 1, Vero, 72 h
[6] = system: Human alphaherpesvirus 1; test: Antiviral activity against Herpes simplex virus type 1 infected in Vero cells at 0.001 ID50/cells assessed as protection against virus-induced cytopathic effect at 200 ug/ml after 3 days by neutral red dye method relative to control; format: functional
[7] = system: Human alphaherpesvirus 1; test: Ratio of acyclovir EC50 to compound EC50 for Herpes simplex virus type 1; format: functional

Row | SMILES | CC50 at 72 h [1] [µM] | Activity [2] | Activity [3] | EC50 [4] [µM] | EC50 [5] [µM] | Activity [6] [%] | ratio [7]
1 | Cc1ccc(-c2c(O)ccn([C@@H]3O[C@H](CO)[C@@H](O)[C@H]3O)c2=O)cc1 | > 400 | Active | Active | > 100 |  |  | 
2 | O=c1c(CCc2ccccc2)c(O)ccn1[C@@H]1O[C@H](CO)[C@@H](O)[C@H]1O | > 400 | Active | Active | > 100 |  |  | 
3 | CCOc1ccc(-c2c(O)ccn([C@@H]3O[C@H](COC(C)=O)[C@@H](OC(C)=O)[C@H]3OC(C)=O)c2=O)cc1 | > 200 |  |  |  | > 100 |  | 
4 | COc1cc(-c2c(O)ccn([C@@H]3O[C@H](COC(C)=O)[C@@H](OC(C)=O)[C@H]3OC(C)=O)c2=O)cc(OC)c1OC | > 200 |  |  |  | > 100 |  | 
5 | COc1ccc(-c2c(O)ccn([C@@H]3O[C@H](CO)[C@@H](O)[C@H]3O)c2=O)cc1 | > 400 | Active | Active | 20 | > 100 | 82 | 3.8
6 | COc1c(C)cc(-c2c(O)ccn([C@@H]3O[C@H](COC(C)=O)[C@@H](OC(C)=O)[C@H]3OC(C)=O)c2=O)cc1C | > 200 |  |  |  | > 100 |  | 
7 | CC(=O)OC[C@H]1O[C@@H](n2ccc(O)c(-c3ccc(OC(F)(F)F)cc3)c2=O)[C@H](OC(C)=O)[C@@H]1OC(C)=O | > 200 |  |  |  | > 100 |  | 
8 | CC(=O)OC[C@H]1O[C@@H](n2ccc(O)c(-c3ccc(C)cc3)c2=O)[C@H](OC(C)=O)[C@@H]1OC(C)=O | > 400 | Active | Active | > 100 |  |  | 
9 | Nc1nc2c(ncn2COCCO)c(=O)[nH]1 [ACYCLOVIR] | > 200 |  |  | 0.76 | 22 |  | 
10 | CC(=O)OC[C@H]1O[C@@H](n2ccc(O)c(-c3ccc4c(c3)OCO4)c2=O)[C@H](OC(C)=O)[C@@H]1OC(C)=O | > 400 | Active | Active | > 100 |  |  | 
11 | O=c1cc(O)c(-c2ccccc2)cn1[C@@H]1O[C@H](CO)[C@@H](O)[C@H]1O | > 200 |  |  |  | > 100 |  | 
12 | CC(=O)OC[C@H]1O[C@@H](n2ccc(O)c(-c3ccccc3)c2=O)[C@H](OC(C)=O)[C@@H]1OC(C)=O | > 400 | Active | Active | > 100 |  |  | 
13 | COc1cc(-c2c(O)ccn([C@@H]3O[C@H](CO)[C@@H](O)[C@H]3O)c2=O)cc(OC)c1OC | > 200 |  |  |  | > 100 |  | 
14 | O=c1c(-c2ccccc2)c(O)ccn1[C@@H]1O[C@H](CO)[C@@H](O)[C@H]1O | > 400 | Active | Active | > 100 |  |  | 
15 | COc1ccc(-c2cn([C@@H]3O[C@H](COC(C)=O)[C@@H](OC(C)=O)[C@H]3OC(C)=O)c(=O)cc2O)cc1 | > 200 |  |  |  | > 100 |  | 
16 | CC(=O)OC[C@H]1O[C@@H](n2cc(-c3ccccc3)c(O)cc2=O)[C@H](OC(C)=O)[C@@H]1OC(C)=O | > 200 |  |  |  | > 100 |  | 
17 | COc1c(C)cc(-c2c(O)ccn([C@@H]3O[C@H](CO)[C@@H](O)[C@H]3O)c2=O)cc1C | > 200 |  |  |  | > 100 |  | 
18 | O=c1c(-c2ccc3c(c2)OCO3)c(O)ccn1[C@@H]1O[C@H](CO)[C@@H](O)[C@H]1O | > 400 | Active | Active | > 100 |  |  | 

Row | SMILES | CC50 at 72 h [1] [µM] | Activity [2] | Activity [3] | EC50 [4] [µM] | EC50 [5] [µM] | Activity [6] [%] | ratio [7]
19 | COc1ccc(-c2cn([C@@H]3O[C@H](CO)[C@@H](O)[C@H]3O)c(=O)cc2O)cc1 | > 200 |  |  |  | > 100 |  | 
20 | CC(=O)OC[C@H]1O[C@@H](n2ccc(O)c(-c3ccc(S(C)(=O)=O)cc3)c2=O)[C@H](OC(C)=O)[C@@H]1OC(C)=O | > 200 |  |  |  | > 100 |  | 
21 | CC(=O)OC[C@H]1O[C@@H](n2c(=O)cc(O)c3ccccc32)[C@H](OC(C)=O)[C@@H]1OC(C)=O | > 200 |  |  |  | > 100 |  | 
22 | O=c1c(-c2ccc(-c3ccccc3)cc2)c(O)ccn1[C@@H]1O[C@H](CO)[C@@H](O)[C@H]1O | > 200 |  |  |  | > 100 |  | 
23 | COc1ccc(-c2c(O)ccn([C@@H]3O[C@H](COC(C)=O)[C@@H](OC(C)=O)[C@H]3OC(C)=O)c2=O)cc1OC | > 200 | Active | Active | 36.6 | > 100 | 75 | 2.1
24 | COc1ccc(-c2c(O)ccn([C@@H]3O[C@H](CO)[C@@H](O)[C@H]3O)c2=O)cc1OC | > 400 | Active | Active | > 100 |  |  | 
25 | CC(=O)OC[C@H]1O[C@@H](n2ccc(O)c(CCc3ccccc3)c2=O)[C@H](OC(C)=O)[C@@H]1OC(C)=O | > 400 | Active | Active | > 100 |  |  | 
26 | O=c1cc(O)c2ccccc2n1[C@@H]1O[C@H](CO)[C@@H](O)[C@H]1O | > 200 |  |  |  | > 100 |  | 
27 | CC(=O)OC[C@H]1O[C@@H](n2ccc(O)c(-c3ccc(C(C)(C)C)cc3)c2=O)[C@H](OC(C)=O)[C@@H]1OC(C)=O | > 200 |  |  |  | > 100 |  | 
28 | O=c1c(-c2ccc(C3CCCCC3)cc2)c(O)ccn1[C@@H]1O[C@H](CO)[C@@H](O)[C@H]1O | > 200 |  |  |  | > 100 |  | 
29 | CCOc1ccc(-c2c(O)ccn([C@@H]3O[C@H](CO)[C@@H](O)[C@H]3O)c2=O)cc1 | > 200 |  |  |  | > 100 |  | 
30 | CC(C)(C)c1ccc(-c2c(O)ccn([C@@H]3O[C@H](CO)[C@@H](O)[C@H]3O)c2=O)cc1 | > 200 |  |  |  | > 100 |  | 
31 | CC(=O)OC[C@H]1O[C@@H](n2ccc(O)c(-c3ccc(C4CCCCC4)cc3)c2=O)[C@H](OC(C)=O)[C@@H]1OC(C)=O | > 200 |  |  |  | 49 |  | 45
32 | COc1ccc(-c2c(O)ccn([C@@H]3O[C@H](COC(C)=O)[C@@H](OC(C)=O)[C@H]3OC(C)=O)c2=O)cc1 | > 200 | Active | Active | 10.5 | > 100 | 85 | 7.2
33 | CCOc1ccc(-c2c(O)c(-c3ccccc3)cn([C@@H]3O[C@H](CO)[C@@H](O)[C@H]3O)c2=O)cc1 | > 200 |  |  |  | > 100 |  | 
34 | CCOc1ccc(-c2c(O)c(-c3ccccc3)cn([C@@H]3O[C@H](COC(C)=O)[C@@H](OC(C)=O)[C@H]3OC(C)=O)c2=O)cc1 | > 200 |  |  |  | > 100 |  | 
35 | CC(=O)OC[C@H]1O[C@@H](n2ccc(O)c(-c3ccc(-c4ccccc4)cc3)c2=O)[C@H](OC(C)=O)[C@@H]1OC(C)=O | > 200 |  |  |  | 33 |  | 67
